Source: the OligoGym collection
“And” between values parts separate entries of the source, which are not always exact repeats. Identical values can stand only once. After the bases stand the sugars from the 5' end (letter, count) and the backbone: PS all phosphorothioate, else s phosphorothioate and o phosphodiester by linkage. Methylation of C is not given here. k = constrained ethyl (cEt); d = 2'-deoxy (DNA)

What follows are sequences tested against MALAT1. Conditions: ASO, A431, 0.005 µM.
In the case of CTGGCATGAGTTTATC (sugars k3 d10 k3, PS), the target mRNA inhibition is reported as 27%. In the case of CTGGTTATGACTCAGA (sugars k3 d10 k3, PS), the target mRNA inhibition is reported as 1%. With CTGTCTAAGAGGTTAT (sugars k3 d10 k3, PS) the target mRNA inhibition was 7%. Sequence CTGTTAACAGCTGCCT (sugars k3 d10 k3, PS) has a target mRNA inhibition of 52%. CTGTTACACCTTGAGT (sugars k3 d10 k3, PS) gave a target mRNA inhibition of 33%. With CTGTTATGTTCACCTG (sugars k3 d10 k3, PS) the target mRNA inhibition was 56% and 77%. With CTTAACAGCTTATGGA (sugars k3 d10 k3, PS) the target mRNA inhibition was 30%. CTTACTGGGTCTGGCT (sugars k3 d10 k3, PS) was tested, and the target mRNA inhibition was 41%. CTTACTTGATAATACA (sugars k3 d10 k3, PS) showed a target mRNA inhibition of 35%. CTTAGTAACCTATTGA (sugars k3 d10 k3, PS) gave a target mRNA inhibition of 34%. CTTATCAATTCACCAA (sugars k3 d10 k3, PS) showed a target mRNA inhibition of 47%. CTTCACCAAATCGCAC (sugars k3 d10 k3, PS) showed a target mRNA inhibition of -13%. CTTCAGACAAGATTCA (sugars k3 d10 k3, PS) showed a target mRNA inhibition of 24%. Work on CTTCAGGCGAGCTGAG (sugars k3 d10 k3, PS) yielded a target mRNA inhibition of -4%. CTTCCCTATATAAGGT (sugars k3 d10 k3, PS) was tested, and the target mRNA inhibition was 10%. CTTCCGCCGCCTCTTA (sugars k3 d10 k3, PS) showed a target mRNA inhibition of 9%. In the case of CTTCGCCTTCCCGTAC (sugars k3 d10 k3, PS), the target mRNA inhibition is reported as 35%. In the case of CTTCTAAGTTTGTACA (sugars k3 d10 k3, PS), the target mRNA inhibition is reported as 47%. CTTCTGGAAAAGCTAG (sugars k3 d10 k3, PS) was tested, and the target mRNA inhibition was 8%. For CTTGAATGCAAACTAC (sugars k3 d10 k3, PS), the target mRNA inhibition was -6%. CTTGACAAGCAATTAA (sugars k3 d10 k3, PS) showed a target mRNA inhibition of 30%. For CTTTAGGATTCTAGAC (sugars k3 d10 k3, PS), the target mRNA inhibition was 7%. Work on CTTTTTAAAAGATCGC (sugars k3 d10 k3, PS) yielded a target mRNA inhibition of 31%. With GAAAACTCCCCCCCGC (sugars k3 d10 k3, PS) the target mRNA inhibition was -4%. In the case of GAAAAGTGGTTGCCCG (sugars k3 d10 k3, PS), the target mRNA inhibition is reported as 32%. Sequence GAAAGATTTGAGCTGC (sugars k3 d10 k3, PS) has a target mRNA inhibition of -10%. In the case of GAAAGTCCTTCACATT (sugars k3 d10 k3, PS), the target mRNA inhibition is reported as 22%. In the case of GAAAGTGCTCACAAGG (sugars k3 d10 k3, PS), the target mRNA inhibition is reported as 6%. GAAATCGGAGCAGCAC (sugars k3 d10 k3, PS) was tested, and the target mRNA inhibition was 1%. Sequence GAAATCTATTCAATAC (sugars k3 d10 k3, PS) has a target mRNA inhibition of 24%. In the case of GAACCCCGTCCTGGAA (sugars k3 d10 k3, PS), the target mRNA inhibition is reported as -18%. GAACTAGCACCTGCAG (sugars k3 d10 k3, PS) showed a target mRNA inhibition of 4%. GAACTATCACAATTCT (sugars k3 d10 k3, PS) was tested, and the target mRNA inhibition was 3%. For GAAGTGTACTATCCCA (sugars k3 d10 k3, PS), the target mRNA inhibition was 72% and 93%. Work on GAATACTCTTCCAAGG (sugars k3 d10 k3, PS) yielded a target mRNA inhibition of 16%. GAATCCCCCCCAAGAT (sugars k3 d10 k3, PS) showed a target mRNA inhibition of -15%. With GAATCCTGTCTGCTGC (sugars k3 d10 k3, PS) the target mRNA inhibition was 33%. GAATTCAACTGGAAGC (sugars k3 d10 k3, PS) showed a target mRNA inhibition of 7%. GACAAGATTCATGAGT (sugars k3 d10 k3, PS) was tested, and the target mRNA inhibition was 47%. With GACAGATTAGTAGTCA (sugars k3 d10 k3, PS) the target mRNA inhibition was -12%. GACATTCAAGCTGAAC (sugars k3 d10 k3, PS) showed a target mRNA inhibition of 53%. GACCAACCCCCAGTTC (sugars k3 d10 k3, PS) was tested, and the target mRNA inhibition was 3%. Work on GACCAACTAAGCGAAT (sugars k3 d10 k3, PS) yielded a target mRNA inhibition of 39%. Work on GAGAAACCTACAACAC (sugars k3 d10 k3, PS) yielded a target mRNA inhibition of 11%. GAGAACAACTCGCATC (sugars k3 d10 k3, PS) showed a target mRNA inhibition of 20%. GAGAACTGCTCTAGTT (sugars k3 d10 k3, PS) gave a target mRNA inhibition of 34%. GAGCCAAGCACTCATA (sugars k3 d10 k3, PS) gave a target mRNA inhibition of 6%. Work on GAGGCAAACGAAACAT (sugars k3 d10 k3, PS) yielded a target mRNA inhibition of 1%. Work on GAGTAACTACCAGCCA (sugars k3 d10 k3, PS) yielded a target mRNA inhibition of 37%. For GAGTATAAGCCTGAAA (sugars k3 d10 k3, PS), the target mRNA inhibition was 16%. Sequence GATAAAAGCAGCTCCA (sugars k3 d10 k3, PS) has a target mRNA inhibition of 30%. Work on GATAACGAAGAGATAC (sugars k3 d10 k3, PS) yielded a target mRNA inhibition of 19%. Sequence GATATTGTGCTGTTAC (sugars k3 d10 k3, PS) has a target mRNA inhibition of -17%. For GATCGCCTTCAAATTA (sugars k3 d10 k3, PS), the target mRNA inhibition was 39%. GATGCTAGCTTGGCCA (sugars k3 d10 k3, PS) was tested, and the target mRNA inhibition was -2%. For GATGGACATTGCCTCT (sugars k3 d10 k3, PS), the target mRNA inhibition was 37%. For GATTATCCTGATATTG (sugars k3 d10 k3, PS), the target mRNA inhibition was 4%. GATTCACTGAATCCAC (sugars k3 d10 k3, PS) was tested, and the target mRNA inhibition was 8%. With GATTCCGTAACTTTAA (sugars k3 d10 k3, PS) the target mRNA inhibition was 69% and 90%. In the case of GATTCTAACAGCACAT (sugars k3 d10 k3, PS), the target mRNA inhibition is reported as 31%. GCACAGCGGTACACTC (sugars k3 d10 k3, PS) gave a target mRNA inhibition of 9%. For GCAGATAATGTTCTCA (sugars k3 d10 k3, PS), the target mRNA inhibition was 73% and 95%. In the case of GCAGGCAAATTAATGG (sugars k3 d10 k3, PS), the target mRNA inhibition is reported as 45%. GCAGGCTATTACCTGA (sugars k3 d10 k3, PS) gave a target mRNA inhibition of 19%. For GCATACCTTAACATCT (sugars k3 d10 k3, PS), the target mRNA inhibition was 54% and 44%. GCATTACAGTTCTTGA (sugars k3 d10 k3, PS) was tested, and the target mRNA inhibition was 72% and 75%. In the case of GCATTGCCCTTCTATT (sugars k3 d10 k3, PS), the target mRNA inhibition is reported as 70% and 46%. GCATTTCCCATAATTG (sugars k3 d10 k3, PS) showed a target mRNA inhibition of 46%. GCCAACACAGTTTGCT (sugars k3 d10 k3, PS) was tested, and the target mRNA inhibition was 30%. With GCCAAGCACTCATATG (sugars k3 d10 k3, PS) the target mRNA inhibition was 24%. Work on GCCATGGAAAGCGAGT (sugars k3 d10 k3, PS) yielded a target mRNA inhibition of 9%. GCCCACAGGAACAAGT (sugars k3 d10 k3, PS) showed a target mRNA inhibition of 25%. Sequence GCCCCAACACTGAACT (sugars k3 d10 k3, PS) has a target mRNA inhibition of 11%. Sequence GCCCCCCACGGCCCGC (sugars k3 d10 k3, PS) has a target mRNA inhibition of 10%. With GCCCTTCTATTGGTAT (sugars k3 d10 k3, PS) the target mRNA inhibition was -3%. Work on GCCGACCTCACGGATT (sugars k3 d10 k3, PS) yielded a target mRNA inhibition of 45%. For GCCGCCTGCTACCTTC (sugars k3 d10 k3, PS), the target mRNA inhibition was 12%. GCCGCCTTTGTGAGGG (sugars k3 d10 k3, PS) showed a target mRNA inhibition of 25%. GCCTATAAGGACAGCT (sugars k3 d10 k3, PS) gave a target mRNA inhibition of 11%. With GCCTCCTCAATCCACT (sugars k3 d10 k3, PS) the target mRNA inhibition was 16%. GCCTCTATTGCCATGT (sugars k3 d10 k3, PS) gave a target mRNA inhibition of 30%. GCCTCTTCATTGTATT (sugars k3 d10 k3, PS) showed a target mRNA inhibition of 10%. In the case of GCCTGCTCGCCTCCTC (sugars k3 d10 k3, PS), the target mRNA inhibition is reported as 41%. GCCTTAAAGTTACATT (sugars k3 d10 k3, PS) was tested, and the target mRNA inhibition was 10%. GCCTTCCCGTACTTCT (sugars k3 d10 k3, PS) was tested, and the target mRNA inhibition was 60% and 53%. Sequence GCCTTCGGTGCCTTTA (sugars k3 d10 k3, PS) has a target mRNA inhibition of -2%. GCGAATGGCTTTGTCT (sugars k3 d10 k3, PS) gave a target mRNA inhibition of 7%. With GCGGACTTTCTCCCCC (sugars k3 d10 k3, PS) the target mRNA inhibition was -24%. GCGGCCCCCCAGTTGC (sugars k3 d10 k3, PS) showed a target mRNA inhibition of -16%. Sequence GCGGTACACTCCTTCT (sugars k3 d10 k3, PS) has a target mRNA inhibition of 28%. In the case of GCTAAGATAGCAGCAC (sugars k3 d10 k3, PS), the target mRNA inhibition is reported as 29%. In the case of GCTACCATCAGAAGAA (sugars k3 d10 k3, PS), the target mRNA inhibition is reported as 22%. GCTACTATATTTAAGG (sugars k3 d10 k3, PS) showed a target mRNA inhibition of 29%. GCTAGCTTGGCCAAGT (sugars k3 d10 k3, PS) showed a target mRNA inhibition of 2%. With GCTCACATGCCAGTTA (sugars k3 d10 k3, PS) the target mRNA inhibition was 32%. Sequence GCTCATCACTTTATGA (sugars k3 d10 k3, PS) has a target mRNA inhibition of 10%. For GCTCCCCGCCTGAGCC (sugars k3 d10 k3, PS), the target mRNA inhibition was 8%. Work on GCTCGATGGAAAAATT (sugars k3 d10 k3, PS) yielded a target mRNA inhibition of 10%. In the case of GCTCTAGTTTCTATAA (sugars k3 d10 k3, PS), the target mRNA inhibition is reported as 27%. With GCTGTGGTTTTAATAC (sugars k3 d10 k3, PS) the target mRNA inhibition was 49% and 57%. Work on GCTTACACACAACTGA (sugars k3 d10 k3, PS) yielded a target mRNA inhibition of 50%. For GCTTATTCCCCAATGG (sugars k3 d10 k3, PS), the target mRNA inhibition was 73% and 48% and 50%. Sequence GCTTCCTACTTTTCAG (sugars k3 d10 k3, PS) has a target mRNA inhibition of 44%. For GCTTGACAAGCAATTA (sugars k3 d10 k3, PS), the target mRNA inhibition was 35%. Sequence GGAAAAGTGGTTGCCC (sugars k3 d10 k3, PS) has a target mRNA inhibition of 24%. Work on GGAAATTTTTCTACCG (sugars k3 d10 k3, PS) yielded a target mRNA inhibition of 8%. With GGAACAAGTCCTACAA (sugars k3 d10 k3, PS) the target mRNA inhibition was 23%. GGAATTATTATATGCT (sugars k3 d10 k3, PS) was tested, and the target mRNA inhibition was 54%. In the case of GGACAGTAGGTATAGT (sugars k3 d10 k3, PS), the target mRNA inhibition is reported as 11%. GGACTCTTTTCCTATC (sugars k3 d10 k3, PS) showed a target mRNA inhibition of -4%. Sequence GGACTTGGCAGTCTGC (sugars k3 d10 k3, PS) has a target mRNA inhibition of 27%. Sequence GGAGAACAACTCGCAT (sugars k3 d10 k3, PS) has a target mRNA inhibition of 17%. With GGAGGTATGACATATA (sugars k3 d10 k3, PS) the target mRNA inhibition was 68% and 84%. GGATAAAAGCAGCTCC (sugars k3 d10 k3, PS) showed a target mRNA inhibition of 32%.
